# Data: ChEMBL document CHEMBL5120857, “Rational design, synthesis and biological evaluation of dual PARP-1/2 and TNKS1/2 inhibitors for cancer therapy” (Eur J Med Chem, 2022)
# Target: T1, Poly [ADP-ribose] polymerase tankyrase-2 (Homo sapiens) (UniProt Q9H2K2)
# T1 sequence (whole entry): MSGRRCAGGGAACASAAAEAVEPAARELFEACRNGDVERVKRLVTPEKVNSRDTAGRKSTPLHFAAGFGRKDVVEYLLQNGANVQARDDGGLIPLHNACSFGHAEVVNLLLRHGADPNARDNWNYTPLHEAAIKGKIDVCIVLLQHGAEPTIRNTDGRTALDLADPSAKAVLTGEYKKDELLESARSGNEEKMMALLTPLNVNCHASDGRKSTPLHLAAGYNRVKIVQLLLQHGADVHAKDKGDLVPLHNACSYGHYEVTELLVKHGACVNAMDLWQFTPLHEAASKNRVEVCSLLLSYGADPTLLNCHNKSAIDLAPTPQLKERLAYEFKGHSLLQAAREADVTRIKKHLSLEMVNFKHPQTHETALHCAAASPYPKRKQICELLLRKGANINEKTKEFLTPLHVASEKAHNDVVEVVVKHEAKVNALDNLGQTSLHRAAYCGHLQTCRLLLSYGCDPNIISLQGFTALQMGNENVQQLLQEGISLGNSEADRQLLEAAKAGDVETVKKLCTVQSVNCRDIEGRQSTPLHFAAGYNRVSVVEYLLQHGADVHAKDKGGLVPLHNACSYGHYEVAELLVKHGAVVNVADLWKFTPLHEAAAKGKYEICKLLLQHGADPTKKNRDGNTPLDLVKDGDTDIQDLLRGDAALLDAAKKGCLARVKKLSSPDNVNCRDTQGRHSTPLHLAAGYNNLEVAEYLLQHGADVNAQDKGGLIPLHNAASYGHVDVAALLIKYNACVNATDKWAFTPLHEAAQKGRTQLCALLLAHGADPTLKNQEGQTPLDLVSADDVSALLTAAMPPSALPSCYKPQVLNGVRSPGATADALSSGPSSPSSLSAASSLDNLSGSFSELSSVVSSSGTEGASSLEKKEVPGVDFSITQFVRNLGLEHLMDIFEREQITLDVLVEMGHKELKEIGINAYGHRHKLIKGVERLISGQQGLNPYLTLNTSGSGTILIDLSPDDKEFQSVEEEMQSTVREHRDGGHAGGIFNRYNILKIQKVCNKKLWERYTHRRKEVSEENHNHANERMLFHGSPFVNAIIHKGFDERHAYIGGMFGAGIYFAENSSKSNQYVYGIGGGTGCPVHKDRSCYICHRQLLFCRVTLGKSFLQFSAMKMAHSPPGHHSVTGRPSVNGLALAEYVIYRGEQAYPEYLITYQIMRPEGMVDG
# Settings: dose 10.0 nM, time 1.0 hrs
smiles,measurement,value
COc1ccc(NC(=O)c2ccc(NC(=O)N3CCN(C(=O)c4cc(Cc5n[nH]c(=O)c6ccccc56)ccc4F)CC3)cc2)cc1,inhibition,68.5%
